SMILES strings stand for the structures.

These results are taken from patent US6534519B1, “Phenanthridine-N-oxides with PDE-IV inhibiting activity” (Altana Pharma AG, priority 1999, dated 2003).

For one series, the system named is PDE4. In words: Inhibition of PDE4 activity (method of Bauer and Schwabe, microtiter plates). It is filed as biochemical. Conditions: inhibitory concentration as −log IC50 (mol/1). From the text:
The activity test can be carried out, for example according to the method of Bauer and Schwabe. For this, the method is adapted to microtiter plates (Naunyn-Schmiedeberg's Arch. Pharmacol. 1980, 311, 193-198). The PDE reaction takes place in the first step here. In a second step, the resulting 5′-nucleotide is cleaved by a 5′-nucloetidase of the snake venom of Crotalus atrox to the uncharged nucleoside. In the third step, the nucleoside is separated from the remaining charged substrate on ion-exchange columns. The columns are eluted directly into minivials, into which 2 ml of scintillator fluid are additionally added for counting, using 2 ml of 30 mM ammonium formate (pH 6.0).
The inhibitory values determined for the compounds according to the invention [inhibitory concentration as −log IC50 (mol/1)] follow from the following Table A, in which the numbers of the compounds correspond to the numbers of the examples.

Compound `CCn1nnc(-c2ccc(C3=[N+]([O-])C4CCCCC4c4cc(OC)c(OC)cc43)cc2)n1` (single isomer, unassigned; (-)) [Compound 1, (−)-cis-6-[4-(2-Ethyl-2H-tetrazol-5-yl)phenyl]-8,9-dimethoxy-1,2,3,4,4a,10b-hexahydrophen-anthridine-N-5-oxide] registered a melting point of 143.5 to 146 °C. In the series with PDE4, the “−log IC50” value was determined as 6.29.

As a reminder, the melting point is the temperature, or range, at which the solid turns liquid.
